Experimental data published in patent US6800470B2, “Mammalian sphingosine kinase type 2 isoforms, cloning, expression and methods of use thereof” (Sankyo Company, Ltd., priority 2000, dated 2004).
“Also recorded” adds a separate entry of the source. Blank lines part the entries; values can stand above or below the molecule they belong to.

How the values were obtained:
mSPHK2 = molecular target: T1, mSPHK2 (Mus musculus, UniProt Q9JIA7); assay: SPHK activity assay with recombinant mSPHK2 (cytosol/lysates of transfected HEK293 cells, [g-32P]ATP, TLC); assay type: biochemical; settings: for SPHK-dependent phosphorylation by SPHK2 (substrate specificity): lipids 50 mM as printed, cytosol of HEK293 cells transfected with mSPHK2, compared with D-erythro-sphingosine; for salt concentration with maximal stimulation of SPHK2 activity: increasing salt concentration, FIG. 5C
T1 construct: The open reading frames of mSPHK2 and hSPHK2 encode polypeptides of 617 and 618 amino acids, respectively; made in house; host or cells: HEK293 (ATCC CRL-1573), transient transfection; unpurified cytosol or whole lysate
T1 sequence (Q9JIA7 1-617): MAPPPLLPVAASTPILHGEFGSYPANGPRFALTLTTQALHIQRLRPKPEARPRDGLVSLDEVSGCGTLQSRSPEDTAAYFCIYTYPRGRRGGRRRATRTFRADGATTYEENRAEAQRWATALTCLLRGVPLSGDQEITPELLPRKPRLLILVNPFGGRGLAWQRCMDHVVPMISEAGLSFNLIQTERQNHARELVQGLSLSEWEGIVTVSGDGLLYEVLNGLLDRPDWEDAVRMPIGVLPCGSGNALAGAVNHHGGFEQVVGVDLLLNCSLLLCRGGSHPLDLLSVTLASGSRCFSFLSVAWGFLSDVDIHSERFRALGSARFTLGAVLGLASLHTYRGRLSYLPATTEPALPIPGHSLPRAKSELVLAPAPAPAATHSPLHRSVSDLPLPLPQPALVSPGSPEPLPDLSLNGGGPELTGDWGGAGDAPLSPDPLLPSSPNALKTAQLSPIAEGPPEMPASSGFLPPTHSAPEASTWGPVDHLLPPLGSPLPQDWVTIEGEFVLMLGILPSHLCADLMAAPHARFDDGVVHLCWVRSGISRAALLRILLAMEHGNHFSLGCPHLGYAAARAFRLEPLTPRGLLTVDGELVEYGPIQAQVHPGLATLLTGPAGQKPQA
Experimental: Lanes: 1, D-erythro-sphingosine (“D-erythro-Sph”); 2, D-erythro-dihydrosphingosine (“D-erythro-DHS”); 3, D, L-threo-DHS; 4, N,N-dimethylsphingosine (“DMS”); 5, C2-ceramide; 6, C16-ceramide; 7, diacylglycerol; 8, phosphatidylinositol; 9, phytosphingosine. Data are expressed as percentage of phosphorylation of D-erythro-Sph.
SPHK activity in HEK293 cell lysates after transfection as in FIG. 4A was measured with 10 μM D-erythro-sphingosine in the presence of increasing concentrations of DMS.
SPHK activity was measured with varying concentrations of D-erythro-sphingosine in the absence (open circles) or presence of 10 μM (filled squares) or 20 μM DMS (filled triangles).
FIG. 4D are Lineweaver-Burk plots.
(§1) In FIGS. 5B and 5C, the SPHK activity in HEK293 cell lysates was measured 24 hours after transfection with mSPHK1 (FIG. 5B) or mSPHK2 (FIG. 5C) in the absence or presence of increasing concentrations of NaCl (open squares) or KCl (filled circles).
FIG. 5E are Lineweaver-Burk plots of data from FIG. 5D.
(§2) HEK293 cells were transfected with mSPHK1a (open circles) or mSPHK2 (filled circles) and the activities of each in cell lysates were measured after 24 hours in the presence of the indicated concentrations of Triton X-100 (FIG. 6A) or BSA (FIG. 6B).
(§3) HEK293 cells were transfected with mSPHK1a (circles) or mSPHK2 (triangles) and the activities of each in cell lysates were measured after 24 hours in the presence of the indicated concentrations of phosphatidylserine (filled symbols) or phosphatidylcholine (open symbols). Data are expressed as percentage of control activity measured without any additions.
(§4) Human embryonic kidney cells (HEK293, ATCC CRL-1573) and NIH 3T3 fibroblasts (ATCC CRL-1658) were cultured as described in Olivera, A., Kohama, T., Edsall, L. C., Nava, V., Cuvillier, O., Poulton, S., and Spiegel, S., J. Cell Biol., 147 (1999) 545-558. HEK293 cells were seeded at 6×10^5 per well in poly-L-lysine coated 6 well plates. After 24 hours, cells were transfected with 1 μg of vector alone or with vectors containing sphingosine kinase constructs and 6 μl of “Lipofectamine PLUS” reagent plus 4 μl of “Lipofectamine” reagent per well. One to three days after transfection, cells were harvested and lysed by freeze-thawing as described in Kohama, T., Olivera, A., Edsall, L., Nagiec, M. M., Dickson, R., and Spiegel, S., J. Biol. Chem., 273, (1998), 23722-23728. In some experiments, cell lysates were fractionated into cytosol and membrane fractions by centrifugation at 100,000×g for 60 minutes. SPHK activity was determined in the presence of sphingosine, prepared as a complex with 4 mg/ml BSA, and [g-32P] ATP in kinase buffer (Olivera, A. and Spiegel, S. in Methods in Molecular Biology, (Bird, I. M. ed.), (1998), Vol. 105, 233-242, Humana Press, Inc., Totowa, N.J.), containing 200 mM KCl, unless indicated otherwise. 32P-SPP was separated by TLC and quantified with a phosphoimager as previously described.

mSPHK1a [1] = molecular target: T2, mSPHK1a (Mus musculus, UniProt Q8CI15); assay: SPHK activity assay with recombinant mSPHK1a (lysates of transfected HEK293 cells); assay type: biochemical; settings: for inhibition of SPHK1 activity: salt concentration 200 mM
T2 construct: made in house; host or cells: HEK293 (ATCC CRL-1573), transient transfection; unpurified cell lysate
Experimental: as §1, §2, §3, §4

mSPHK1a [2] = molecular target: T2, mSPHK1a; settings: cited from earlier work; for inhibition of SPHK1: previously shown (Edsall et al. 1998)
HEK293 cells [3] = assay: SPHK activity in HEK293 cells transiently transfected with SPHK expression vectors (cytosol and particulate fractions); assay type: cell-based, human; settings: 24 hours after transfection of HEK293 cells
Experimental: In FIG. 3A, HEK 293 cells were transiently transfected with an empty vector or with mSPHK2 or hSPHK2 expression vectors. After 24 hours, SPHK activity was measured in cytosol (open bars) and particulate fractions (filled bars). The data are means±S.D. Parental and vector-transfected cells had basal SPHK activities of 26 and 37 pmol/min/mg, respectively.
as §4

HEK293 cells [4] = assay: Mass levels of SPP in HEK293 cells after transfection with SPHK2; assay type: cell-based, human; settings: HEK 293 cells after transfection
Experimental: Mass levels of SPP in HEK293 cells transfected with an empty vector (open bars) or with mSPHK2 (filled bars) or with hSPHK2 (hatched bars) were measured as described hereinbelow. The data are expressed as pmol/nmol phospholipid.
Cells were washed with PBS and scraped in 1 ml of methanol containing 2.5 μl concentrated HCl. Lipids were extracted by adding 2 ml chloroform/1M NaCl (1:1, v/v) and 100 μl 3N NaOH and phases separated. The basic aqueous phase containing SPP, and devoid of sphingosine, ceramide, and the majority of phospholipids, was transferred to a siliconized glass tube. The organic phase was re-extracted with 1 ml methanol/1M NaCl (1:1, v/v) plus 50 μl 3N NaOH, and the aqueous fractions were combined. Mass measurement on SPP in the aqueous phase and total phospholipids in the organic phase were measured exactly as described in Edsall, L. C., Pirianov, G. G., and Spiegel, S., J. Neurosci., 17, (1997) 6952-6960; Edsall, L. C., and Spiegel, S., Anal. Biochem., 272, (1999) 80-86).

T2 sequence (Q8CI15 1-381 isoform Q8CI15-3): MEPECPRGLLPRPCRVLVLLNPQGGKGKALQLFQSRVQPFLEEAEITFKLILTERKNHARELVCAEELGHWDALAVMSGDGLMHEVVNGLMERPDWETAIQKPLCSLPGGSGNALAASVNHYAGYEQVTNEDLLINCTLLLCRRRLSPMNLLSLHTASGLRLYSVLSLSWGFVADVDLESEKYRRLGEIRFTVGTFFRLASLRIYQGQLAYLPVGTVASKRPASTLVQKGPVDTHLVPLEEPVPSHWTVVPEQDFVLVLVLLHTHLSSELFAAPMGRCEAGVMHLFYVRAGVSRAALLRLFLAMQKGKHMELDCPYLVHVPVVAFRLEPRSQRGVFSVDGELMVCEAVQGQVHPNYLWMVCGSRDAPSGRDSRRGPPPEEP

effect on SPHK2 activity (mSPHK2; in words): stimulated
maximal increase of SPHK2 activity (mSPHK2; phosphatidylserine 40 μg/ml): 4 fold
effect on SPHK1 activity (mSPHK1a [1]; in words): stimulated
maximal increase of SPHK1 activity (mSPHK1a [1]; phosphatidylserine 40 μg/ml): 4 fold
Molecule: phosphatidylserine

Molecule: N,N-dimethylsphingosine [DMS]
inhibition of SPHK2 (mSPHK2; 10 μM D-erythro-sphingosine, increasing concentrations of DMS (FIG. 4B)): potent inhibitor
manner of inhibition of SPHK2 (mSPHK2; kinetic analysis, FIG. 4C and 4D): non-competitive
SPHK-dependent phosphorylation by SPHK2 (substrate specificity) (mSPHK2): not phosphorylated
Ki (mSPHK2; recombinant mSPHK2, HEK293 cell lysates, varying D-erythro-sphingosine, 10 or 20 μM DMS, Lineweaver-Burk, read-out: Ki for DMS with SPHK2): 12 µM
inhibition of SPHK1 (mSPHK1a [2]): potent competitive inhibitors; also recorded: competitive inhibitor

SPHK-dependent phosphorylation by SPHK2 (substrate specificity) (mSPHK2): not phosphorylated
Molecule: diacylglycerol

SPHK-dependent phosphorylation by SPHK2 (substrate specificity) (mSPHK2): significantly phosphorylated
SPHK-dependent phosphorylation by SPHK2 (substrate specificity) (mSPHK2; listed as D, L-threo-dihydrosphingosine): to a lesser extent
phosphorylation by SPHK1 (mSPHK1a [1]): not phosphorylated at all
Molecule: CCCCCCCCCCCCCCC[C@H](O)[C@@H](N)CO [D,L-threo-dihydrosphingosine]

effect on SPHK2 activity (mSPHK2; Triton X-100 0.5%): almost completely inhibited
effect on SPHK2 activity (mSPHK2; detergent below 0.005%): no effect
effect on SPHK2 activity (mSPHK2; in words): inhibited
increase of SPHK1 activity (mSPHK1a [1]; Triton X-100 0.5%): more than 4 fold
effect on SPHK1 activity (mSPHK1a [1]; detergent below 0.005%): no effect
effect on SPHK1 activity (mSPHK1a [1]; in words): markedly increased
Molecule: Triton X-100

phosphorylation by SPHK1 (mSPHK1a [1]): not phosphorylated at all
Molecule: CCCCCCCCCCCCCC[C@@H](O)[C@@H](O)[C@@H](N)CO [phytosphingosine]
SPHK-dependent phosphorylation by SPHK2 (substrate specificity) (mSPHK2): significantly phosphorylated; also recorded: to a lesser extent

SPHK-dependent phosphorylation by SPHK2 (substrate specificity) (mSPHK2): not phosphorylated
Molecule: CCCCCCCCCCCCC/C=C/[C@@H](O)[C@H](CO)NC(C)=O [C2-ceramide]

Molecule: CCCCCCCCCCCCCCC[C@@H](O)[C@@H](N)CO [DHS, dihydrosphingosine]
SPHK-dependent phosphorylation by SPHK2 (substrate specificity) (mSPHK2): even better substrate than D-erythro-sphingosine
inhibition of SPHK1 (mSPHK1a [2]): potent competitive inhibitors; also recorded: potent inhibitor

SPHK-dependent phosphorylation by SPHK2 (substrate specificity) (mSPHK2): not phosphorylated
Molecule: CCCCCCCCCCCCC/C=C/[C@@H](O)[C@H](CO)NC(=O)CCCCCCCCCCCCCCC [C16-ceramide]

Molecule: [Cl-].[Na+] [NaCl]
effect on SPHK2 activity (mSPHK2; in words): dramatically stimulated; also recorded: markedly stimulated
salt concentration with maximal stimulation of SPHK2 activity (mSPHK2): 400 mM
inhibition of SPHK1 activity (mSPHK1a [1]): 50%

Molecule: mSPHK1: first cloned mammalian (murine) sphingosine kinase, type 1
increase of in vitro SPHK activity over basal levels (HEK293 cells [3]): 610 fold

Molecule: CCCCCCCCCCCCC/C=C/[C@@H](O)[C@@H](N)CO [D-erythro-sphingosine]
phosphorylation by SPHK1 (substrate rank) (mSPHK1a [2]; Kohama et al. 1998): best substrate

effect on SPHK2 activity (mSPHK2; in words): no effect
effect on SPHK1 activity (mSPHK1a [1]; in words): no effect
Molecule: phosphatidylcholine [phosphatidyicholine]

Molecule: CCCCCCCCCCCCCCC[C@@H](O)[C@@H](N)CO [D-erythro-dihydrosphingosine]
SPHK-dependent phosphorylation by SPHK2 (substrate specificity) (mSPHK2): better substrate for SPHK2 than D-erythro-sphingosine

SPHK-dependent phosphorylation by SPHK2 (substrate specificity) (mSPHK2): not phosphorylated
Molecule: phosphatidylinositol

Molecule: [Cl-].[K+] [KCl]
Km value of mSPHK2 for sphingosine in the presence of KCl (mSPHK2; 50 or 200 mM KCl): not affected
Vmax of mSPHK2 (mSPHK2; in the presence of 50 mM KCl): 0.3 nmol/min/mg
Vmax of mSPHK2 (mSPHK2; in the presence of 200 mM KCl): 1 nmol/min/mg
effect on SPHK2 activity (mSPHK2; in words): dramatically stimulated; also recorded: markedly stimulated
salt concentration with maximal stimulation of SPHK2 activity (mSPHK2): 400 mM
inhibition of SPHK1 activity (mSPHK1a [1]): 50%

B1: hSPHK2: human sphingosine kinase type 2, polypeptide of 618 amino acids (SEQ ID NO 14) (protein)
chain: MAPPPPPLAASTPLLHGEFGSYPARGPRFALTLTSQALHIQRLRPKPEARPRGGLVPLAEVSGCCTLRSRSPSDSAAYFCIYTYPRGRRGARRRATRTFRADGAATYEENRAEAQRWATALTCLLRGLPLPGDGEITPDLLPRPPRLLLLVNPFGGRGLAWQWCKNHVLPMISEAGLSFNLIQTERQNHARELVQGLSLSEWDGIVTVSGDGLLHEVLNGLLDRPDWEEAVKMPVGILPCGSGNALAGAVNQHGGFEPALGLDLLLNCSLLLCRGGGHPLDLLSVTLASGSRCFSFLSVAWGFVSDVDIQSERFRALGSARFTLGTVLGLATLHTYRGRLSYLPATVEPASPTPAHSLPRAKSELTLTPDPAPPMAHSPLHRSVSDLPLPLPQPALASPGSPEPLPILSLNGGGPELAGDWGGAGDAPLSPDPLLSSPPGSPKAALHSPVSEGAPVIPPSSGLPLPTPDARVGASTCGPPDHLLPPLGTPLPPDWVTLEGDFVLMLAISPSHLGADLVAAPHARFDDGLVHLCWVRSGISRAALLRLFLAMERGSHFSLGCPQLGYAAARAFRLEPLTPRGVLTVDGEQVEYGPLQAQMHPGIGTLLTGPPGCPGREP
increase of in vitro SPHK activity over basal levels (HEK293 cells [3]): 35 fold
increase in SPP (HEK293 cells [4]): 3.3 fold
